Results: PubChem BioAssay (NCI)
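Values below derive from 48-hour exposures of cells grown in 96-well plates, with endpoints linearly interpolated between the two concentrations bracketing the appropriate inhibition level. The concentration for full growth arrest is given as TGI.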

How the values were obtained:
Assay in all cases: inhibition of tumour cell growth, NCI panel, 48 h
786-0 renal = tested on: 786-0 renal
DU-145 prostate = tested on: DU-145 prostate
EKVX NSCLC = tested on: EKVX NSCLC
HCC-2998 colon = tested on: HCC-2998 colon
HCT-116 colon = tested on: HCT-116 colon
HL-60(TB) leukemia = tested on: HL-60(TB) leukemia
HOP-92 NSCLC = tested on: HOP-92 NSCLC
KM12 colon = tested on: KM12 colon
MALME-3M melanoma = tested on: MALME-3M melanoma
MOLT-4 leukemia = tested on: MOLT-4 leukemia
NCI-H226 lung = tested on: NCI-H226 lung
NCI-H460 lung = tested on: NCI-H460 lung
NCI-H522 lung = tested on: NCI-H522 lung
OVCAR-8 ovarian = tested on: OVCAR-8 ovarian
SF-539 CNS = tested on: SF-539 CNS
SK-MEL-2 melanoma = tested on: SK-MEL-2 melanoma
SK-OV-3 ovarian = tested on: SK-OV-3 ovarian
SNB-75 CNS = tested on: SNB-75 CNS
UACC-257 melanoma = tested on: UACC-257 melanoma
UACC-62 melanoma = tested on: UACC-62 melanoma

Structure (SMILES) | TGI (786-0 renal) [µM] | TGI (DU-145 prostate) [µM] | TGI (EKVX NSCLC) [µM] | TGI (HCC-2998 colon) [µM] | TGI (HCT-116 colon) [µM] | TGI (HL-60(TB) leukemia) [µM] | TGI (HOP-92 NSCLC) [µM] | TGI (KM12 colon) [µM] | TGI (MALME-3M melanoma) [µM] | TGI (MOLT-4 leukemia) [µM] | TGI (NCI-H226 lung) [µM] | TGI (NCI-H460 lung) [µM] | TGI (NCI-H522 lung) [µM] | TGI (OVCAR-8 ovarian) [µM] | TGI (SF-539 CNS) [µM] | TGI (SK-MEL-2 melanoma) [µM] | TGI (SK-OV-3 ovarian) [µM] | TGI (SNB-75 CNS) [µM] | TGI (UACC-257 melanoma) [µM] | TGI (UACC-62 melanoma) [µM]
CN(C)CCNC1=CC(=O)c2nc3ccccc3c3ccnc1c23 | 15.6 | 22.4 | 14.3 | 16.8 | 14.8 | 16.8 | 60.9 | 17.4 | 16.2 | 13.6 | 18.8 | 9.91 | 16.2 | 37.5 | 15.5 | 20.7 | 29.4 | 27.8 | 22.6 | 18.2
Cc1ccc2c(c1)C(C1Cc3cccc(C)c3C1=O)OC2=O (stereo not given) | > 100 | > 100 | > 100 | > 100 | > 100 | > 100 | > 100 | > 100 | > 100 | > 100 | > 100 | > 100 | > 100 | > 100 | > 100 | > 100 | > 100 | > 100 | > 100 | > 100
COc1ccc2oc(=O)c(-c3nc4ccccc4o3)cc2c1 | > 100 | > 100 | > 100 | > 100 | > 100 | > 100 | > 100 | > 100 | > 100 | > 100 | > 100 | > 100 | > 100 | > 100 | > 100 | > 100 | > 100 | > 100 | > 100 | > 100
CC1=NN(C(=O)CC(=O)Nc2cccc(C)c2)C(=O)C1N=Nc1ccc(S(=O)(=O)c2ccc(N=NC3C(=O)N(C(=O)CC(=O)Nc4cccc(C)c4)N=C3C)cc2)cc1 (stereo not given) | > 100 | > 100 | > 100 | > 100 | > 100 | > 100 | > 100 | > 100 | > 100 | > 100 | > 100 | > 100 | > 100 | > 100 | > 100 | > 100 | > 100 | > 100 | > 100 | > 100
C=C(C)[C@@H]1CCC2=C[C@H](OC2=O)[C@@]2(C)C[C@@H]2C(=O)/C=C(/C)C(=O)[C@H]1OC(C)=O | 30.3 | 21 | > 49.8 | 43 | 20.3 | > 100 | > 93.3 | 42 | 29.8 | > 39.4 | 58.3 | > 82.3 | 17.1 | > 68.6 | > 33.7 | > 80.1 | > 84.7 | > 83.5 | 81.4 | > 73
COc1cc([C@@H]2c3cc4c(cc3[C@@H](OC3OC5COC(C)OC5C(OC(=O)CN5CCN(C)CC5)C3OC(=O)CN3CCN(C)CC3)C3COC(=O)[C@@H]32)OCO4)cc(OC)c1OC(=O)CN1CCN(C)CC1 (stereo not given in full) | 52.8 | > 100 | > 100 | > 100 | > 100 | 42.6 | > 100 | > 100 | > 100 | 42.1 | > 100 | > 100 | > 100 | > 100 | 73.4 | > 100 | > 100 | 84.9 | > 100 | > 100
C=C(C)[C@H]1C[C@@H]2O[C@@](O)(/C(C)=C\C(=O)/C=C(/C)C[C@H]3OC(=O)[C@@]24O[C@H]34)[C@@H]1O | > 100 | > 100 | > 100 | > 100 | > 100 | > 100 | > 100 | > 100 | > 100 | > 100 | > 100 | > 100 | > 100 | > 100 | > 100 | > 100 | > 100 | > 100 | > 100 | > 100
C/C(=N/c1[nH]c(=O)cc2c1C(=O)CC2)N(C)C | > 200 | > 200 | > 200 | > 200 | > 200 | > 200 | > 200 | > 200 | > 200 | > 200 | > 200 | > 200 | > 200 | > 200 | > 200 | > 200 | > 200 | > 200 | > 200 | > 200
Cn1c(=O)cc(N=Nc2ccc(Cl)c(Cl)c2)[nH]c1=O | 31.9 | > 100 | 51.4 | > 100 | 59.6 | 50.7 | 80.4 | > 100 | 32.6 | 61 | > 100 | > 100 | 49.4 | 53 | > 100 | 45.2 | > 100 | > 100 | 65.9 | > 100
CC(=O)OC[C@@]1(C)[C@@H]2[C@@H]3[C@@]4(CO[C@]3(C)C(=O)[C@@]3(O)C[C@H](C)[C@H](OC(C)=O)[C@@H]3[C@H]4OC(C)=O)[C@H](OC(=O)c3ccccc3)C[C@@H]21 | > 100 | > 100 | > 100 | > 100 | > 100 | > 100 | > 100 | > 100 | > 100 | > 100 | > 100 | > 100 | > 100 | > 100 | > 100 | > 100 | > 100 | > 100 | > 100 | > 100
CC(=O)NC1C(OC2C(CO)OC(OCC3OC(n4ccc(N)nc4=O)C(O)C3O)C(NC(C)=O)C2O)OC(CO)C(O)C1O (stereo not given) | > 100 | > 100 | > 100 | > 100 | > 100 | > 100 | > 100 | > 100 | > 100 | > 100 | > 100 | > 100 | > 100 | > 100 | > 100 | > 100 | > 100 | > 100 | > 100 | > 100
NC(=NCCN1CCCCCCC1)NO | > 100 | > 100 | > 100 | > 100 | 26.7 | > 100 | > 100 | > 100 | > 100 | > 100 | > 100 | > 100 | > 100 | > 100 | > 100 | > 100 | > 100 | > 100 | > 100 | > 100
